Results as given in patent publication US20250152555A1, “Pharmaceutical Composition for Preventing or Treating Triple-Negative Breast Cancer” (Daewoong Pharmaceutical Co., Ltd., priority 2021, published 2025).

Columns and labels:
[1] = tested on: Hs578T (human triple negative breast cancer cell line); assay: CellTiter-Glo Luminescent Cell Viability, combined administration of docetaxel (Experimental Example 3); type: cell-based
Protocol: 10 μM of Fexuprazan and 1 μM of Doxorubicin were administered singly and in combination, respectively. As a comparative group, 10 μM of Vonoprazan was administered singly or in combination with Doxorubicin. At this time, 0.1% DMSO was used as a solvent for each composition. Further, 0.1% DMSO was used as a vehicle control. Each experimental group was repeated twice. Plates treated with the compound at respective concentrations were incubated in a 5% CO2 incubator at 37° C. for 48 hours. […] The reaction was performed at room temperature in a dark room for 10 minutes, and luminescence was measured using a Flexstation3 multi-mode microplate reader. The luciferase enzyme activity, representing the amount of ATP, was measured by a chemiluminescence method according to CellTiter-Glo® Luminescent Cell Viability instructions, and the inhibitory activity was calculated. […]
Hs578T (human triple negative breast cancer cell line) was incubated in a 96 well clear bottom plate and then stabilized for 24 hours. […] After incubating in a 5% CO2 incubator at 37° C. for 48 hours, the luciferase enzyme activity, representing the amount of ATP, was measured by a chemiluminescence method according to CellTiter-Glo® Luminescent Cell Viability instructions, and the inhibitory activity was calculated. The respective results were analyzed using Microsoft Excel, and significance was confirmed through an unpaired t test in Graphpad Prism software.

Hs578T cell line = assay: CellTiter-Glo Luminescent Cell Viability, optimal molar ratio for combination use with Doxorubicin (Experimental Example 2); type: cell-based, human
Protocol: (§1) In order to confirm the anticancer efficacy when Fexuprazan and Doxorubicin were administered in combination, cell proliferation was measured for Hs578T (human triple-negative breast cancer cell line) by a CellTiter-Glo® Luminescent Cell Viability (Promega, Catalog #G7571) method. The above evaluation was performed by a method in which when the luciferase enzyme was activated by ATP leaked from living cells, it reacted with a luciferin substrate, and the enzyme activity at this time was measured to confirm the cell viability.
Specifically, 100 μL of cell culture medium (RPMI medium, 10% FBS, 1% P/S, 4.5 g/L D-Glucose, 2.383 g/L HEPES Buffer, L-Glutamine, 1.5 g/L Sodium Bicarbonate, 110 mg/L Sodium pyruvate) was used and each cancer cell line was prepared in a white clear-bottom 96-well microplate. 10 μM of Fexuprazan and 1 μM of Doxorubicin were administered singly and in combination, respectively. As a comparative group, 10 μM of Vonoprazan was administered singly or in combination with Doxorubicin. At this time, 0.1% DMSO was used as a solvent for each composition. […] The reaction was performed at room temperature in a dark room for 10 minutes, and luminescence was measured using a Flexstation3 multi-mode microplate reader. The luciferase enzyme activity, representing the amount of ATP, was measured by a chemiluminescence method according to CellTiter-Glo® Luminescent Cell Viability instructions, and the inhibitory activity was calculated. The results of each compound were analyzed using Microsoft Excel. […]
In order to confirm the optimal combination ratio of Fexuprazan to Doxorubicin, cell proliferation was measured using a CellTiter-Glo® Luminescent Cell Viability (Promega, Catalog #G7571) method in the same manner as in Experimental Example 1. […] The cells were incubated in a 5% CO2 incubator at 37° C. for 48 hours, the luciferase enzyme activity, representing the amount of ATP, was measured by a chemiluminescence method according to CellTiter-Glo® Luminescent Cell Viability instructions, and the inhibitory activity of the compound according to this purpose was calculated. […]

[2] = tested on: Hs578T (human triple-negative breast cancer cell line); assay: CellTiter-Glo Luminescent Cell Viability, combined administration of Doxorubicin (Experimental Example 1); type: cell-based; conditions: for antitumor effect in combination with Doxorubicin compared to administration alone / synergistic effect with Doxorubicin: 10 μM with 1 μM Doxorubicin, Table 1 and FIG. 1; for viability at 10 µM: single agent 10.0 μM, no Doxorubicin
Protocol: as §1
Specifically, 100 μL of cell culture medium (RPMI medium, 10% FBS, 1% P/S, 4.5 g/L D-Glucose, 2.383 g/L HEPES Buffer, L-Glutamine, 1.5 g/L Sodium Bicarbonate, 110 mg/L Sodium pyruvate) was used and each cancer cell line was prepared in a white clear-bottom 96-well microplate. 10 μM of Fexuprazan and 1 μM of Doxorubicin were administered singly and in combination, respectively. As a comparative group, 10 μM of Vonoprazan was administered singly or in combination with Doxorubicin. At this time, 0.1% DMSO was used as a solvent for each composition. Further, 0.1% DMSO was used as a vehicle control. Each experimental group was repeated twice. Plates treated with the compound at respective concentrations were incubated in a 5% CO2 incubator at 37° C. for 48 hours. 100 μL/well of the substrate aqueous solution containing luciferin was added to a white clear-bottom 96 well microplate to initiate the enzymatic reaction. The reaction was performed at room temperature in a dark room for 10 minutes, and luminescence was measured using a Flexstation3 multi-mode microplate reader. The luciferase enzyme activity, representing the amount of ATP, was measured by a chemiluminescence method according to CellTiter-Glo® Luminescent Cell Viability instructions, and the inhibitory activity was calculated. The results of each compound were analyzed using Microsoft Excel. Compound concentrations were converted into logarithmic values using GraphPad Prism software and expressed on the graph.

[3] = Homo sapiens, Hs-578T, 48 hours, read-out: Relative cell viability (%)
[4] = Homo sapiens, Hs-578T, Doxorubicin 1.0 μM alone, 48 hours, read-out: Relative cell viability (%)

## CC(=O)O[C@@]12CO[C@@H]1C[C@H](O)[C@@]1(C)C(=O)[C@H](O)C3=C(C)[C@@H](OC(=O)[C@H](O)[C@@H](NC(=O)OC(C)(C)C)c4ccccc4)C[C@@](O)([C@@H](OC(=O)c4ccccc4)[C@H]21)C3(C)C [Docetaxel, docetaxel]
[1]; Homo sapiens, Hs-578T, Docetaxel 1.0 nM alone, 48 hours, read-out: Relative cell viability (%)
  viability at 0.001 µM: 88.3%
[1]; Homo sapiens, Hs-578T, Docetaxel 10.0 nM alone, 48 hours, read-out: Relative cell viability (%)
  viability at 0.01 µM: 49.3%
[1]; docetaxel 1 nM and 10 nM combined with 10 μM Fexuprazan, Table 3 and FIG. 4
  synergistic effect on the antitumor effect relative to Esomeprazole: synergistic effect

## CNCc1cn(S(=O)(=O)c2cccc(F)c2)c(-c2ccc(F)cc2F)c1OC [Fexuprazan, 1-(5-(2,4-difluorophenyl)-1-((3-fluorophenyl)sulfonyl)-4-methoxy-1H-pyrrol-3-yl)-N-methylmethanamine]
Hs578T cell line; molar ratio of Doxorubicin and Fexuprazan 1:5 or more
  synergistic effect with Doxorubicin, compared to the combined effect of Esomeprazole: synergistic effects
Hs578T cell line; molar ratios of Doxorubicin and Fexuprazan 1:10 or more
  synergistic effect with Doxorubicin, compared to the combined effect of Esomeprazole: especially superior
[2]
  antitumor effect in combination with Doxorubicin compared to administration alone / synergistic effect with Doxorubicin: superior antitumor effect
[2]; [3]
  viability at 10 µM: 100%

## CNCc1cc(-c2ccccc2F)n(S(=O)(=O)c2cccnc2)c1 [Vonoprazan]
[2]
  antitumor effect in combination with Doxorubicin compared to administration alone / synergistic effect with Doxorubicin: no synergistic effect
[2]; [3]
  viability at 10 µM: 92.3%

## COc1cccc2c1C(=O)c1c(O)c3c(c(O)c1C2=O)C[C@@](O)(C(=O)CO)C[C@@H]3O[C@H]1C[C@H](N)[C@H](O)[C@H](C)O1 [Doxorubicin]
Hs578T cell line; [4]
  viability at 1 µM: 50%
[2]; [4]
  viability at 1 µM: 70.6%
